Source: patent US20220023269A1, “Methods Of Treating Diabetes In Severe Insulin-Resistant Diabetic Subjects” (Balticgruppen Bio AB, priority 2018, published 2022)

What was measured:
[1] = tested on: patients suffering from type-2 diabetes; experiment: Renal hemodynamics / glomerular perfusion in humans; format: in vivo, human
[2] = tested on: CBA mice on HFD; experiment: Crossover HFD / test material-HFD (2 mg/g) at housing and thermoneutral conditions; format: in vivo
Description: 14 weeks old CBA mice were randomised into HFD and test material-HFD (2 mg/g) groups for 2 weeks while housed at 22° C. The two groups were then switched from HFD to test material-HFD and vice versa for an additional 4.5 weeks before transferred from 22° C. to 30° C. (thermoneutrality). After one week at 30° C. the diet was switched again and one week after the switch core body temperature were determined.
Food intake was measured weekly by giving each cage 200 g pellet. After one week, the amount of pellets consumed were calculated and adjusted according to the number of animals/cage. Body weight was measured weekly. Body composition was assessed using EchoMRI.

[3] = tested on: CBA mice on HFD; experiment: Arginine-stimulated insulin secretion; format: in vivo; conditions: 0.8 mg/g in HFD, 11 w; arginine 1 g/kg i.p.
Description: Arginine-stimulated insulin secretion was determined following i.p. injection of arginine (SIGMA #A5131) (1 g/kg body weight) in non-fasted 21 weeks old CBA mice that had been on HFD or test material-HFD (0.8 mg/g) for 11 w. Blood glucose was measured using Glucometer (Ultra 2, One Touch) and plasma insulin analysed via the ultrasensitive mouse insulin ELISA kit (Chrystal Chem Inc. #90080). Area under the Curve (AUC) was calculated according to the trapezoid rule.

[4] = tested on: AMPK in HeLa cells; experiment: AMPK activation assay in HeLa cells (LKB1 null); format: cell-based, human; conditions: LKB1 null cells; 2.5, 5 or 10 μM, 4 hours
Description: (§1) All cell lines were lysed in 0.1 M Tris-HCl, pH 6.8, 2% SDS, 10 mM sodium fluoride (SIGMA #S7920), 10 mM β-glycerophosphate (SIGMA #G6376), and 1 mM sodium vanadate (SIGMA #72060) and supernatant collected after 1 minute at 14,000 rpm. Islets (human and mouse) were lysed in 0.1 M Tris-HCl, pH 6.8, 2% SDS, protease inhibitor (Roche #04 693 124 001) and phosphatase inhibitor (Roche #04 906 837 001). Right calf muscle, heart, iWAT, and interscapular BAT was crushed in a pestle using liquid nitrogen and homogenised in ice cold RIPA buffer (150 mM sodium chloride (SIGMA #S7653), 1.0% NP40 (USB), 0.5% sodium deoxycholate (SIGMA #D6750), 0.1% SDS, 50 mM Tris pH 8.0, 20 mM sodium pyrophosphate (SIGMA #71515), 10 mM sodium fluoride, 10 mM β-glycerolphosphate, 1 mM sodium vanadate and protease inhibitor cocktail (Roche #04693124001), 1 tablet/10 ml lysis buffer). The supernatant was collected after 2 min at 14,000 rpm. This procedure was repeated until all fat was eliminated and the supernatant was clear, at 4° C. Samples were analysed on 4-15% polyacrylamide gels. Values were normalised toward AMPKα, β-Actin, GAPDH or the respective non-phosphorylated counterpart.
(§2) Table 3 contains origin of cell lines, growth conditions and settings for activation of AMPK via the test material. […]

[5] = tested on: hIAPPtg DIO mice; experiment: Prevention of diabetes in hIAPPtg DIO mice (oral gavage, 6 w); format: in vivo; conditions: 100 mg/kg/day gavage, 6 w HFD
[6] = tested on: AMPK in human islets; experiment: AMPK activation in human islets; format: cell-based; conditions: 1.0, 2.5, 5.0, 10 μM, 4 hours
Description: as §1, §2

[7] = Pharmacokinetics in mice and rats (plasma, liver, brain); format: in vivo; conditions: rodents
Description: Pharmacokinetics of the test material in C57BL/6JBomTac mice and NTac:SD rats were determined via UHPLC-ESI Triple Quad MSMS in plasma from non-fasted animals. The test material (40 mg/kg test material) was administered via oral gavage and 4-, 8-, 12- and 24-hours after administration blood was collected. Test material levels were determined in liver and brain from non-fasted Crl:CD (SD) rats administered the test material (40 mg/kg test material), once daily for 3 weeks, via oral gavage. The test material was extracted in acetonitrile and levels determined using UHPLC-ESI Triple Quad MSMS.

[8] = tested on: CBA mice on HFD; experiment: Echocardiography (LV function); format: in vivo; conditions: for heart rate: anesthetized
Description: Left ventricle structure and function were analysed with transthoracic, high-frequency echocardiography using the MS550D transducer. The examination was performed during light isoflurane anaesthesia (1.5-2.0% in 800 mL oxygen). Anaesthesia level was adjusted to keep the respiration rate at 80-110 breaths per minute. Left ventricular volumes were determined in B-mode using a Simpson's rule reconstruction. All images were analysed off-line in a blinded way using the Vevo LAB software 1.7.0. Stroke volume, cardiac output and heart rate were analysed, as well as wall thicknesses and left ventricle diameter. Three measurements/animal was performed for mean values.

[9] = test material-HFD 0.8 or 2 mg/g, 6 w

O=C(Nc1nc(=O)n(Cc2ccc(Cl)cc2)s1)c1ccc(Cl)cc1 [test material, 4-chloro-N-[2-[(4-chlorophenyl)methyl]-3-oxo-1,2,4-thiadiazol-5-yl]benzamide]
microvascular perfusion in glomeruli ([1]; humans): positive effect on microvascular perfusion in glomeruli
renal hemodynamics ([1]; patients suffering from type-2 diabetes): positive effects on renal hemodynamics
body weight gain ([2]; 2 mg/g in HFD, day 1-14, housing temperature): gained almost no weight
body weight at thermoneutrality, continued on test material-HFD ([2]; 30° C. from day 49): still averted weight gain
increase in core temperature vs HFD (nonsignificant) ([2]; 30° C. housing): 0.2 °C
core temperature ([2]; 30° C. housing, one week after switch, n=5): 37.9 °C
body weight after switch from HFD to test material-HFD at thermoneutrality ([2]; 30° C., switch at day 57): rapidly started to lose weight
body weight after switch from HFD to test material-HFD ([2]; switch at day 15, housing temperature): rapidly started to lose weight
arginine stimulation of insulin secretion, increase vs HFD [3]: 2 fold
basal levels of pAMPK and pACC [4]: failed to increase
HOMA-IR and Matsuda index (systemic insulin resistance) [5]: suppressed the development of systemic insulin resistance
i.p. and oral glucose-tolerance tests [5]: prevented the development of glucose intolerance and compensatory hyperinsulinemia
6 h fasted blood glucose ([5]; vs vehicle): averted the increase
6 h fasted plasma insulin levels ([5]; vs vehicle): averted the increase
pAMPKα [6]: directly increased pAMPKα
blood-brain barrier crossing [7]: does not cross the blood-brain barrier
oral availability [7]: orally available
plasma half-life [7]: long
heart rate ([8]; 0.8 mg/g): normalized
heart rate ([8]; 2 mg/g): reduced heart rate
increase in stroke volume compared with both RD and HFD ([8]; test material-HFD 0.8 mg/g and 2 mg/g, 6 w): ~20%
end-diastolic volume [8, 9]: normalized end-diastolic volume
end-systolic volume [8, 9]: dose-dependently improved, but did not fully restore
